The subject of one data set is IFN. Briefly: Cytokine Induction in Human Cells: interferon (IFN) secreted by PBMCs, A549/encephalomyocarditis bioassay. Note: call rule not given here. Format: cell-based. The settings on record: 18 to 24 hours. In short, it runs like this: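 Human PBMCs from healthy donors at 1.5-2×10^6 cells/mL in RPMI with 10% FBS, exposed to compounds (typically 0.1 to 100 μM, ≤1% DMSO) for 18 to 24 h at 37° C. Secreted IFN measured by A549/encephalomyocarditis virus cytopathic-effect bioassay, in alpha reference units/mL against NIH human leukocyte IFN standard.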

Another data set concerns TNF. The data set can be described thus: Cytokine Induction in Human Cells: tumor necrosis factor (TNF) secreted by PBMCs, ELISA. Note: call rule not given here. Format: cell-based. Conditions: 18 to 24 hours. The essentials:
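Human donor PBMCs at 1.5-2×10^6 cells/mL in RPMI with 10% FBS were exposed to compound, generally at 0.1 to 100 μM (≤1% DMSO final), for 18 to 24 h at 37 °C. Secreted TNF in supernatant was measured by ELISA and reported as pg/mL.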

Take `CCCCc1nc2c(N)nc3cccnc3c2n1CCNC(=O)CCCCCC1NC(=O)NC1C` (stereo not drawn) [Example 115, N^1-[4-(4-Amino-2-butyl-1H-imidazo[4,5-c][1,5]naphthyridin-1-yl)ethyl]-6-(5-methyl-2-oxo-4-imidazolidinyl)hexamide]: the melting point is 184 to 186 °C. Further, the IFN induction result in the data set with IFN (Dose Concentration 0.1 μM) is “−”. Further, in the data set on IFN (Dose Concentration 1.0 μM), the IFN induction entry is “−”. Besides, the IFN induction result in the data set on IFN (Dose Concentration 10.0 μM) is on record as “+”. Moreover, in the data set with IFN (Dose Concentration 100.0 μM), the IFN induction result is listed as “+”. The TNF induction result in the data set on TNF (Dose Concentration 0.1 μM) was “−”. Besides, in the data set on TNF (Dose Concentration 1.0 μM), the TNF induction entry is on record as “−”. In addition, the TNF induction result in the data set on TNF (Dose Concentration 10.0 μM) is reported as “+”. Besides, the TNF induction result in the data set on TNF (Dose Concentration 100.0 μM) is given as “+”.
In the case of `CCCCc1nc2c(N)nc3cccnc3c2n1CCCCNC(=O)CSc1ncccn1` [Example 109, N^1-[4-(4-Amino-2-butyl-1H-imidazo[4,5-c][1,5]naphthyridin-1-yl)butyl]-2-(2-pyrimidinylsulfanyl)acetamide], the melting point is 156 to 160 °C (dec.). In addition, the IFN induction entry in the data set with IFN (Dose Concentration 0.1 μM) is recorded as “+”. Also, the IFN induction result with IFN (Dose Concentration 1.0 μM) is “+”. The IFN induction result with IFN (Dose Concentration 10.0 μM) is on record as “+”. Also, the IFN induction result with IFN (Dose Concentration 100.0 μM) is “+”. Moreover, in the data set on TNF (Dose Concentration 0.1 μM), the TNF induction result is given as “−”. The TNF induction entry with TNF (Dose Concentration 1.0 μM) is recorded as “±”. In addition, the TNF induction entry in the data set on TNF (Dose Concentration 10.0 μM) was “+”. Moreover, the TNF induction entry in the data set on TNF (Dose Concentration 100.0 μM) is “+”.
`CCCCc1nc2c(N)nc3cccnc3c2n1CCNC(=O)C1CCC(=O)O1` (stereo not drawn) [Example 97, N-[2-(4-Amino-2-butyl-1H-imidazo[4,5-c][1,5]naphthyridin-1-yl)ethyl]-5-oxotetrahydro-2-furancarboxamide] showed a melting point of 153 to 154 °C. For the same compound, the IFN induction result in the data set with IFN (Dose Concentration 0.1 μM) is listed as “−”. In the data set on IFN (Dose Concentration 1.0 μM), the IFN induction result was “−”. For the same compound, the IFN induction result in the data set on IFN (Dose Concentration 10.0 μM) was “+”. In addition, the IFN induction entry in the data set on IFN (Dose Concentration 100.0 μM) is listed as “+”. Moreover, in the data set on TNF (Dose Concentration 0.1 μM), the TNF induction result was “−”. For the same compound, in the data set on TNF (Dose Concentration 1.0 μM), the TNF induction result is “−”. Further, the TNF induction result in the data set with TNF (Dose Concentration 10.0 μM) was “+”. The TNF induction result in the data set with TNF (Dose Concentration 100.0 μM) is given as “+”.
As to `CCCCc1nc2c(N)nc3cccnc3c2n1CCN` [Example 91, 2-(4-Amino-2-butyl-1H-imidazo[4,5-c][1,5]naphthyridin-1-yl)ethaneamine], the melting point fell in the range of 175 to 176 °C. Moreover, in the data set on IFN (Dose Concentration 0.1 μM), the IFN induction entry was “+”. The IFN induction result with IFN (Dose Concentration 1.0 μM) is “+”. In addition, in the data set on IFN (Dose Concentration 10.0 μM), the IFN induction result was “+”. Also, in the data set with IFN (Dose Concentration 100.0 μM), the IFN induction result is “+”. Moreover, in the data set on TNF (Dose Concentration 0.1 μM), the TNF induction entry is “+”. The TNF induction entry in the data set with TNF (Dose Concentration 1.0 μM) is on record as “+”. Besides, the TNF induction result with TNF (Dose Concentration 10.0 μM) is recorded as “+”. Further, the TNF induction result with TNF (Dose Concentration 100.0 μM) is reported as “+”.
`CCCCc1nc2c(N)nc3cccnc3c2n1CCNC(=O)CC(C)CCC=C(C)C` (stereo not drawn) [Example 100, N^1-[2-(4-Amino-2-butyl-1H-imidazo[4,5-c][1,5]naphthyridin-1-yl)ethyl]-3,7-dimethyl-6-octenamide] displayed a melting point of 163 to 164 °C. In addition, the IFN induction entry with IFN (Dose Concentration 0.1 μM) is listed as “−”. The IFN induction result with IFN (Dose Concentration 1.0 μM) was “−”. In the data set on IFN (Dose Concentration 10.0 μM), the IFN induction result is recorded as “+”. Besides, the IFN induction result with IFN (Dose Concentration 100.0 μM) is “+”. Further, in the data set with TNF (Dose Concentration 0.1 μM), the TNF induction result was “−”. Further, the TNF induction result in the data set on TNF (Dose Concentration 1.0 μM) is “−”. Further, the TNF induction result in the data set with TNF (Dose Concentration 10.0 μM) is recorded as “+”. Further, the TNF induction result with TNF (Dose Concentration 100.0 μM) is recorded as “+”.

Values taken from patent publication US7678918B2, “Intermediates for imidazonaphthyridines” (3M Innovative Properties Company, priority 1997, dated 2010).
